Laboratory results: PubChem BioAssay AID248 (DTP/NCI, 2004)
Several values for one entry are separate records, joined by “and”; a condition that tells them apart may be missing. Equal entries are not always repeated. Inconclusive results and toxic doses are left out. Cut-off read from the data, not from the text of the source: active = T/C of 150% or more; inactive = T/C below 125%.

Test system: L1210 leukemia ip in BDF1 mice, survival T/C
Test: NCI In Vivo Anticancer Drug Screen. Data for tumor model L1210 Leukemia (intraperitoneal) in B6D2F1 (BDF1) mice
Details: endpoint: mean survival time, higher = longer survival
Summary of the method: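 Tumor was transplanted into mice, which were then dosed with test compound or vehicle alone. Survival was recorded for each group, and the treated figure was expressed relative to the control figure.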

[1] = dose: 100.0 mg/kg/injection, schedule: Q04DX003 (ip), vehicle: Klucel (hydroxypropylcellulose) (HPC)
[2] = dose: 200.0 mg/kg/injection, schedule: Q04DX003 (ip), vehicle: Klucel (hydroxypropylcellulose) (HPC)
[3] = dose: 400.0 mg/kg/injection, schedule: Q04DX003 (ip), vehicle: Klucel (hydroxypropylcellulose) (HPC)

Measured: T/C

C(=C\c1ccccc1)/CSc1ncnc2nc[nH]c12
active: dose: 500.0 mg/kg/injection, schedule: Q01DX015 (ip), vehicle: saline 166 % of control
inactive: dose: 62.5 mg/kg/injection, schedule: Q01DX015 (ip), vehicle: saline 106 % of control | dose: 125.0 mg/kg/injection, schedule: Q01DX015 (ip), vehicle: saline 116 % of control | dose: 250.0 mg/kg/injection, schedule: Q01DX015 (ip), vehicle: saline 104 % of control

CC1=CC(C)C(=O)N(C)C(C)=C1 (centres undefined)
inactive: dose: 75.0 mg/kg/injection, schedule: Q01DX001 (ip), vehicle: carboxymethylcellulose (CMC) 97 % of control | dose: 150.0 mg/kg/injection, schedule: Q01DX001 (ip), vehicle: carboxymethylcellulose (CMC) 91 % of control | dose: 300.0 mg/kg/injection, schedule: Q01DX001 (ip), vehicle: carboxymethylcellulose (CMC) 92 % of control

COc1cc[n+]([O-])cc1
inactive: dose: 100.0 mg/kg/injection, schedule: Q01DX009 (ip), vehicle: saline 103 % of control | dose: 100.0 mg/kg/injection, schedule: Q01DX Z (ip), vehicle: saline 102 % of control and 106 % of control | dose: 100.0 mg/kg/injection, schedule: Q04DX003 (ip), vehicle: saline 121 % of control | dose: 150.0 mg/kg/injection, schedule: Q01DX Z (ip), vehicle: saline 103 % of control and 107 % of control | dose: 200.0 mg/kg/injection, schedule: Q01DX009 (ip), vehicle: saline 100 % of control | dose: 200.0 mg/kg/injection, schedule: Q04DX003 (ip), vehicle: saline 114 % of control | dose: 225.0 mg/kg/injection, schedule: Q01DX Z (ip), vehicle: saline 95 % of control and 97 % of control | dose: 300.0 mg/kg/injection, schedule: Q01DX Z (ip), vehicle: saline 92 % of control and 106 % of control | dose: 400.0 mg/kg/injection, schedule: Q01DX009 (ip), vehicle: saline 99 % of control | dose: 400.0 mg/kg/injection, schedule: Q04DX003 (ip), vehicle: saline 95 % of control

C=COC1CCCCC1
inactive: dose: 100.0 mg/kg/injection, schedule: Q01DX009 (ip), vehicle: Klucel (hydroxypropylcellulose) (HPC) 101 % of control | [1] 97 % of control | dose: 200.0 mg/kg/injection, schedule: Q01DX009 (ip), vehicle: Klucel (hydroxypropylcellulose) (HPC) 100 % of control | [2] 90 % of control | dose: 400.0 mg/kg/injection, schedule: Q01DX009 (ip), vehicle: Klucel (hydroxypropylcellulose) (HPC) 95 % of control | [3] 88 % of control

Nc1cc(NC(c2ccccc2)c2ccccc2)c(N)c(N)n1
inactive: dose: 100.0 mg/kg/injection, schedule: Q01DX001 (ip), vehicle: gum acacia 88 % of control | dose: 200.0 mg/kg/injection, schedule: Q01DX001 (ip), vehicle: gum acacia 90 % of control | dose: 400.0 mg/kg/injection, schedule: Q01DX001 (ip), vehicle: gum acacia 92 % of control

O=C1OC(c2ccc(Cl)cc2)=N/C1=C\c1c(Cl)cccc1Cl
inactive: dose: 100.0 mg/kg/injection, schedule: Q04DX002 (ip), vehicle: saline 93 % of control | dose: 200.0 mg/kg/injection, schedule: Q04DX002 (ip), vehicle: saline 107 % of control | dose: 400.0 mg/kg/injection, schedule: Q04DX002 (ip), vehicle: saline 118 % of control

O=C(Nc1ccc(Nc2ccccc2)cc1)Nc1ccc(F)c(Cl)c1
inactive: [1] 92 % of control | [2] 94 % of control | [3] 94 % of control

NC(N)=Nc1ccc(OC(=O)c2ccc(N=C(N)N)cc2)cc1
inactive: dose: 25.0 mg/kg/injection, schedule: Q01DX009 (ip), vehicle: water 96 % of control | dose: 50.0 mg/kg/injection, schedule: Q01DX009 (ip), vehicle: water 96 % of control

O=S(=O)(OC1CC2C=CC1C21CC1)c1ccc(Br)cc1 (centres undefined)
inactive: dose: 100.0 mg/kg/injection, schedule: Q01DX001 (ip), vehicle: Klucel (hydroxypropylcellulose) (HPC) 98 % of control | dose: 200.0 mg/kg/injection, schedule: Q01DX001 (ip), vehicle: Klucel (hydroxypropylcellulose) (HPC) 97 % of control | dose: 400.0 mg/kg/injection, schedule: Q01DX001 (ip), vehicle: Klucel (hydroxypropylcellulose) (HPC) 94 % of control

CSc1ccc(-c2nc3ncnc(N)c3[nH]2)cc1
inactive: dose: 25.0 mg/kg/injection, schedule: Q01DX001 (ip), vehicle: gum acacia 95 % of control | dose: 50.0 mg/kg/injection, schedule: Q01DX001 (ip), vehicle: gum acacia 93 % of control

O=C(O)C1Cc2ccccc2CN1 (centres undefined)
inactive: dose: 25.0 mg/kg/injection, schedule: Q01DX009 (ip), vehicle: saline with Tween-80 95 % of control | dose: 50.0 mg/kg/injection, schedule: Q01DX009 (ip), vehicle: saline with Tween-80 98 % of control | dose: 100.0 mg/kg/injection, schedule: Q01DX009 (ip), vehicle: saline with Tween-80 96 % of control and 106 % of control

Nn1nnc2ccccc21
inactive: dose: 100.0 mg/kg/injection, schedule: Q01DX001 (ip), vehicle: saline 95 % of control | dose: 200.0 mg/kg/injection, schedule: Q01DX001 (ip), vehicle: saline 97 % of control | dose: 400.0 mg/kg/injection, schedule: Q01DX001 (ip), vehicle: saline 97 % of control

Cc1c2cc3c(c1O)C(=O)CC(O3)c1ccc(O)c(c1)-c1ccc(O)c(c1)C(=O)OCC1OC(O2)C(O)C(O)C1O (centres undefined)
inactive: dose: 0.13 mg/kg/injection, schedule: Q01DX009 (ip), vehicle: Klucel (hydroxypropylcellulose) (HPC) 98 % of control | dose: 0.25 mg/kg/injection, schedule: Q01DX009 (ip), vehicle: Klucel (hydroxypropylcellulose) (HPC) 95 % of control | dose: 0.5 mg/kg/injection, schedule: Q01DX009 (ip), vehicle: Klucel (hydroxypropylcellulose) (HPC) 101 % of control | dose: 1.0 mg/kg/injection, schedule: Q01DX009 (ip), vehicle: Klucel (hydroxypropylcellulose) (HPC) 114 % of control
